Measurements published in the NIST ThermoML archive (doi:10.1016/j.fluid.2016.02.009).
Numbers after ± are expanded uncertainties.

Conditions: Liquid, Vibrating tube method

SMILES: CCCCOC [butyl methyl ether]
- mass density (283.15 K, 100 kPa): 755.88 ± 0.3 kg/m3
- mass density (283.15 K, 5000 kPa): 760.82 ± 0.33 kg/m3
- mass density (283.15 K, 10000 kPa): 765.42 ± 0.36 kg/m3
- mass density (283.15 K, 15000 kPa): 769.77 ± 0.39 kg/m3
- mass density (283.15 K, 20000 kPa): 773.91 ± 0.43 kg/m3
- mass density (283.15 K, 25000 kPa): 777.86 ± 0.46 kg/m3
- mass density (283.15 K, 30000 kPa): 781.65 ± 0.49 kg/m3
- mass density (283.15 K, 35000 kPa): 785.29 ± 0.53 kg/m3
- mass density (283.15 K, 40000 kPa): 788.8 ± 0.56 kg/m3
- mass density (283.15 K, 45000 kPa): 792.18 ± 0.6 kg/m3
- mass density (283.15 K, 50000 kPa): 795.45 ± 0.63 kg/m3
- mass density (283.15 K, 55000 kPa): 798.61 ± 0.66 kg/m3
- mass density (283.15 K, 60000 kPa): 801.68 ± 0.7 kg/m3
- mass density (283.15 K, 65000 kPa): 804.67 ± 0.73 kg/m3
- mass density (288.15 K, 100 kPa): 750.88 ± 0.3 kg/m3
- mass density (288.15 K, 5000 kPa): 756.01 ± 0.33 kg/m3
- mass density (288.15 K, 10000 kPa): 760.78 ± 0.36 kg/m3
- mass density (288.15 K, 15000 kPa): 765.26 ± 0.4 kg/m3
- mass density (288.15 K, 20000 kPa): 769.53 ± 0.43 kg/m3
- mass density (288.15 K, 25000 kPa): 773.58 ± 0.46 kg/m3
- mass density (288.15 K, 30000 kPa): 777.48 ± 0.5 kg/m3
- mass density (288.15 K, 35000 kPa): 781.19 ± 0.53 kg/m3
- mass density (288.15 K, 40000 kPa): 784.79 ± 0.57 kg/m3
- mass density (288.15 K, 45000 kPa): 788.24 ± 0.61 kg/m3
- mass density (288.15 K, 50000 kPa): 791.57 ± 0.64 kg/m3
- mass density (288.15 K, 55000 kPa): 794.8 ± 0.67 kg/m3
- mass density (288.15 K, 60000 kPa): 797.94 ± 0.7 kg/m3
- mass density (288.15 K, 65000 kPa): 800.98 ± 0.74 kg/m3
- mass density (293.15 K, 100 kPa): 745.85 ± 0.3 kg/m3
- mass density (293.15 K, 5000 kPa): 751.18 ± 0.33 kg/m3
- mass density (293.15 K, 10000 kPa): 756.08 ± 0.36 kg/m3
- mass density (293.15 K, 15000 kPa): 760.71 ± 0.4 kg/m3
- mass density (293.15 K, 20000 kPa): 765.09 ± 0.43 kg/m3
- mass density (293.15 K, 25000 kPa): 769.27 ± 0.47 kg/m3
- mass density (293.15 K, 30000 kPa): 773.26 ± 0.5 kg/m3
- mass density (293.15 K, 35000 kPa): 777.09 ± 0.54 kg/m3
- mass density (293.15 K, 40000 kPa): 780.75 ± 0.58 kg/m3
- mass density (293.15 K, 45000 kPa): 784.3 ± 0.61 kg/m3
- mass density (293.15 K, 50000 kPa): 787.7 ± 0.65 kg/m3
- mass density (293.15 K, 55000 kPa): 791 ± 0.68 kg/m3
- mass density (293.15 K, 60000 kPa): 794.21 ± 0.71 kg/m3
- mass density (293.15 K, 65000 kPa): 797.33 ± 0.75 kg/m3
- mass density (298.15 K, 100 kPa): 740.78 ± 0.3 kg/m3
- mass density (298.15 K, 5000 kPa): 746.29 ± 0.33 kg/m3
- mass density (298.15 K, 10000 kPa): 751.36 ± 0.37 kg/m3
- mass density (298.15 K, 15000 kPa): 756.15 ± 0.4 kg/m3
- mass density (298.15 K, 20000 kPa): 760.68 ± 0.44 kg/m3
- mass density (298.15 K, 25000 kPa): 764.97 ± 0.47 kg/m3
- mass density (298.15 K, 30000 kPa): 769.08 ± 0.51 kg/m3
- mass density (298.15 K, 35000 kPa): 772.99 ± 0.55 kg/m3
- mass density (298.15 K, 40000 kPa): 776.76 ± 0.58 kg/m3
- mass density (298.15 K, 45000 kPa): 780.38 ± 0.62 kg/m3
- mass density (298.15 K, 50000 kPa): 783.87 ± 0.65 kg/m3
- mass density (298.15 K, 55000 kPa): 787.24 ± 0.69 kg/m3
- mass density (298.15 K, 60000 kPa): 790.51 ± 0.72 kg/m3
- mass density (298.15 K, 65000 kPa): 793.65 ± 0.76 kg/m3
- mass density (303.15 K, 100 kPa): 735.68 ± 0.3 kg/m3
- mass density (303.15 K, 5000 kPa): 741.39 ± 0.33 kg/m3
- mass density (303.15 K, 10000 kPa): 746.66 ± 0.37 kg/m3
- mass density (303.15 K, 15000 kPa): 751.6 ± 0.4 kg/m3
- mass density (303.15 K, 20000 kPa): 756.25 ± 0.44 kg/m3
- mass density (303.15 K, 25000 kPa): 760.68 ± 0.47 kg/m3
- mass density (303.15 K, 30000 kPa): 764.89 ± 0.51 kg/m3
- mass density (303.15 K, 35000 kPa): 768.9 ± 0.55 kg/m3
- mass density (303.15 K, 40000 kPa): 772.76 ± 0.59 kg/m3
- mass density (303.15 K, 45000 kPa): 776.46 ± 0.63 kg/m3
- mass density (303.15 K, 50000 kPa): 780.03 ± 0.66 kg/m3
- mass density (303.15 K, 55000 kPa): 783.46 ± 0.7 kg/m3
- mass density (303.15 K, 60000 kPa): 786.77 ± 0.73 kg/m3
- mass density (303.15 K, 65000 kPa): 790 ± 0.76 kg/m3
- mass density (308.15 K, 100 kPa): 730.53 ± 0.3 kg/m3
- mass density (308.15 K, 5000 kPa): 736.43 ± 0.33 kg/m3
- mass density (308.15 K, 10000 kPa): 741.88 ± 0.37 kg/m3
- mass density (308.15 K, 15000 kPa): 746.98 ± 0.41 kg/m3
- mass density (308.15 K, 20000 kPa): 751.8 ± 0.44 kg/m3
- mass density (308.15 K, 25000 kPa): 756.35 ± 0.48 kg/m3
- mass density (308.15 K, 30000 kPa): 760.67 ± 0.52 kg/m3
